Reference: US11744853B2, “Method of administration and treatment” (Dyve Biosciences, Inc., priority 2017, dated 2023)

Legend:
MCF-7 tumors = assay: MCF-7 tumor growth in SCID mice, doxorubicin with oral or topical bicarbonate (Example 9); type: in vivo; conditions: B doxorubicin 1.6 mg/kg i.p. days 3, 7, 11; C oral 200 mM bicarbonate; D oral bicarbonate + doxorubicin; E topical formulation 150 μL/day; F topical + doxorubicin
Description: The start of the bicarbonate treatment was designated as day 1. […] On day 15, animals in Groups C and D were placed back on normal drinking water and animals in Groups E and F ceased received t.i.d. topical applications.
Tumor volumes and animal weights were monitored every 2 days.

MCF-7 cells = assay: Doxorubicin uptake and cytotoxicity in MCF-7 cells at medium pH 6.8 or 7.4 (Example 9); type: cell-based
Protocol: Medium pH was buffered using non-volatile buffers (10 mM MES, 20 mM HEPES and 10 mM TRICINE) in combination with bicarbonate concentrations that were adjusted to be in equilibrium with 5% ambient carbon dioxide. Twenty-four hours later, regular growth medium was replaced and cells allowed to grow a subsequent 72 h, after which time they were fixed and stained with crystal violet for determination of cell number.

doxorubicin
reduction in tumor growth rate (MCF-7 tumors): ~30%
increase in intracellular doxorubicin concentrations on raising the pHe from 6.8 to 7.4 (MCF-7 cells; 14C doxorubicin): 2.56 fold
enhancement of cytotoxicity on raising the pHe from 6.8 to 7.4 (MCF-7 cells; 24 h exposure, crystal violet after a subsequent 72 h): 2.25 fold
